Measurements taken from PMC4907692, “Engineering vanilloid-sensitivity into the rat TRPV2 channel” (eLife, 2016).
Several values for one entry are separate records, joined by “and”; a condition that tells them apart may be missing. Equal entries are not always repeated.

How the values were obtained:
TRPV2 F472S/Q530E = molecular target: T1, TRPV2 F472S/Q530E (Rattus norvegicus, UniProt Q9WUD2, F472S/Q530E); assay: Two-electrode voltage-clamp in Xenopus oocytes, TRPV2 F472S/Q530E; type: cell-based; conditions: 100 nM RTx
T1 construct: expressed in transfected cells; host or cells: Xenopus oocytes (cRNA injection)
T1 sequence (Q9WUD2 whole entry F472S/Q530E): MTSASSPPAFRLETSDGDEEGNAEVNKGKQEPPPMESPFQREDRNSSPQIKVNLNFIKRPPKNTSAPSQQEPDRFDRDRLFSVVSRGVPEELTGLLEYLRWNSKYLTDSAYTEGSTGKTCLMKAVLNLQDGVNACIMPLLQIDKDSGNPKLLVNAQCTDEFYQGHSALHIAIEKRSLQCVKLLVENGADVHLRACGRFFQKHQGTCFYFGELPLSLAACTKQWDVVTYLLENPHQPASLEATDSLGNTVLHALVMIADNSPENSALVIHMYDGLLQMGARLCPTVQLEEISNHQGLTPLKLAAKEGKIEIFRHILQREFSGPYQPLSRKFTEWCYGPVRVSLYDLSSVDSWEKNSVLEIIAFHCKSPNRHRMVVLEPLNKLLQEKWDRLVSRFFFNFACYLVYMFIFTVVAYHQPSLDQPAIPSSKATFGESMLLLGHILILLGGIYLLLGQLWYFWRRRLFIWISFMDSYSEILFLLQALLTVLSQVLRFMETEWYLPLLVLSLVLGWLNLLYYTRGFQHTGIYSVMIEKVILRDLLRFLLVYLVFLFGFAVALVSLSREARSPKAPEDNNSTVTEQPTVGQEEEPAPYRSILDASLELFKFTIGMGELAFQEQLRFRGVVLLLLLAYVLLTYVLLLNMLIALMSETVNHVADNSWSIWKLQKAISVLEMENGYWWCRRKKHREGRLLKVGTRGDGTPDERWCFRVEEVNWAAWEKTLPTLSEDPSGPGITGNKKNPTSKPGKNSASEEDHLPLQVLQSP

TRPV2 F472S/L510T = molecular target: T2, TRPV2 F472S/L510T (Rattus norvegicus, UniProt Q9WUD2, F472S/L510T); assay: Two-electrode voltage-clamp in Xenopus oocytes, TRPV2 F472S/L510T; type: cell-based; conditions: 100 nM RTx
T2 construct: expressed in transfected cells; host or cells: Xenopus oocytes (cRNA injection)
T2 sequence (Q9WUD2 whole entry F472S/L510T): as the sequence (Q9WUD2 whole entry F472S/Q530E) above, with L510T, E530Q counted along it
Text: To further investigate the putative vanilloid binding pocket in TRPV1, we inspected the cryo-EM structure of TRPV1, looking for residues that are located nearby to the putative RTx density (Figure 1B; regions/residues highlighted in yellow) and that differ between TRPV1 and TRPV2 channels (Figure 3—figure supplement 1; regions highlighted in magenta). […] To quantify the contribution of each of these residues to TRPV1 channel activation by RTx under our experimental conditions, we mutated each to the corresponding residue in TRPV2. We then expressed each construct in oocytes and used the two electrode voltage-clamp technique to study activation by RTx and by the non-specific TRPV channel activator 2-APB. We recorded time courses for channel activation by each agonist while stepping the membrane potential from −60 to +60 mV every 3 s from a holding potential of 0 mV using an external recording solution containing 100 mM KCl (internal K^+ concentration in a healthy oocyte is 100 mM) (Figure 3A, left). We also recorded current-voltage (I-V) relations by stepping over a wider range of voltages in the absence and presence of activators, or in the presence of ruthenium red (RR), a non-specific inhibitor of TRP channels (Figure 3A, right). […]

[1] = molecular target: T3, full-length 1D4-tagged TRPV1 (Rattus norvegicus, UniProt O35433); assay: 3H-RTx binding to S. cerevisiae membranes containing 1D4-tagged TRPV1; conditions: for Hill slope (nH): membranes
T3 construct: made in house; host or cells: S. cerevisiae BJ5457, YEpHIS vector, PMA1 promoter; isolated membranes
T3 sequence (O35433 whole entry): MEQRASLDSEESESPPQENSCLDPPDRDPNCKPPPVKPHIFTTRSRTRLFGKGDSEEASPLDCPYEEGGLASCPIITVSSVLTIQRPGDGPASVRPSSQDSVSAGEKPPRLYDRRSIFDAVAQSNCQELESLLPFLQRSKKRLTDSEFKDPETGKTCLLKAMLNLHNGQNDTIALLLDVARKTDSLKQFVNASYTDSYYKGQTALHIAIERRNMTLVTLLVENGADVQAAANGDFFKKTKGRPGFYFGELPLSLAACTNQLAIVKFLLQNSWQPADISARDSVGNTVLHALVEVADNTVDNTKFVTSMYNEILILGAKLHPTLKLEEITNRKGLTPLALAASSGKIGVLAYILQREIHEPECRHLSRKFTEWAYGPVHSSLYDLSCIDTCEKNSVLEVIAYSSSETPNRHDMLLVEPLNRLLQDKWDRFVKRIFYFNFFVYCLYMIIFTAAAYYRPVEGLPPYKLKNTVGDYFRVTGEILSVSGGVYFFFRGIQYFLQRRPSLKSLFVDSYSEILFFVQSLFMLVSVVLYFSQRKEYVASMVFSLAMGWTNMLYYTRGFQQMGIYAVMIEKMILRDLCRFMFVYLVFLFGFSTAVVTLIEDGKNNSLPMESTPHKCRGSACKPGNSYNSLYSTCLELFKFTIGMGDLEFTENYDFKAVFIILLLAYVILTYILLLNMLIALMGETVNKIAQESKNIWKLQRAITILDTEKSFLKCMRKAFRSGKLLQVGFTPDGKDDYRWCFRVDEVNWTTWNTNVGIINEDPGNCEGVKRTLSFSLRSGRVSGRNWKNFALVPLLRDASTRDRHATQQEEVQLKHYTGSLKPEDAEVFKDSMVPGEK
Text: The polymodal activation of TRPV1 has been widely conceptualized using allosteric models wherein binding of activators (such as vanilloids, protons, DkTx or voltage) are allosterically coupled to opening of the pore ([Brauchi et al., 2004]; [Jara-Oseguera et al., 2016]; [Matta and Ahern, 2007]). The allosteric nature of these interactions has begun to be explored using electrophysiological measurements of channel function ([Jara-Oseguera et al., 2016]; [Yao et al., 2010]), but has thus far not been investigated biochemically. We therefore tested whether binding of DkTx can enhance the affinity of TRPV1 for RTx, which would be predicted by an allosteric model wherein the two activators promote opening by binding more tightly to the open state. For these experiments we used a 1D4-tagged TRPV1 construct where expression in S. cerevisiae was driven by a constitutive promoter and we performed binding assays on yeast membranes where the vanilloid would have free access to the channel protein (see Methods). Under these conditions, we measured a Kd for RTx binding to 1D4-tagged TRPV1 of 0.6 nM under control conditions, about ten fold higher affinity than what we measured in intact cells using GFP-tagged TRPV1. When we measured the concentration-dependence of RTx binding to 1D4-tagged TRPV1 in the presence of DkTx, we observed that the tarantula toxin enhanced the affinity for RTx by about 3-fold (Figure 2A). The effects of DkTx were concentration-dependent (Figure 2B) and were observed independent of whether the binding assay was performed at 37°C (our standard temperature) or at 30°C (Figure 2A).
The full-length TRPV1 and TRPV2 channels with 1D4 affinity tags (TETSQVAPA) on their C-termini were cloned into the YEpHIS vector and expressed in the BJ5457 strain of S. cerevisiae using the strong constitutively active PMA1 promoter, as previously described ([Moiseenkova-Bell et al., 2008]). After 48 hr of expression at 30°C in YPD media, cells were harvested by centrifugation and re-suspended in PBS buffer, supplemented with complete protease inhibitor cocktail (Roche, Indianapolis, IN) and 4-amidinophenylmethanesulfonyl fluoride hydrochloride (APMSF) (Sigma-Aldrich, St. Louis, MO). Cells were broken by passing through an Avestin homogenizer at the pressure of 35 kpsi, cell lysate was cleared by centrifugation at 8,000 g for 15 min and membranes were isolated by ultracentrifugation at 190,000 g for 1 hr. Membrane pellets were re-suspended in PBS buffer supplemented with protease inhibitors and 200 mM sucrose, flash-frozen in liquid nitrogen and stored at -70°C until RTx binding measurements.
S. cerevisiae cells overexpressing TRPV1 constructs to be used in ligand binding assays on intact cells (Figure 1E,F) were grown as for small scale expression trials. 24 hr after protein induction cells were spun down at 4000g, the supernatant was removed and the pellet resuspended in 1x PBS, normalizing OD600 to 75 for each sample, and aliquoted for storage at -80°C. ^3H-RTx binding assays on cells were performed at 37°C as previously described ([Feng et al., 2015]), but where non-specific binding of RTx was measured using cells expressing GFP alone. The binding of RTx to TRPV1 and TRPV2 in membranes (e.g. Figure 2A,B and 5C) was performed at 37°C unless otherwise stated using membranes prepared from large scale protein preparations of S. cerevisiae containing rat TRPV1 and TRPV2 with a 1D4 tag expressed using a constitutive promoter as in [Moiseenkova-Bell et al., 2008]. Data for binding of RTx to membranes was corrected for non-specific binding, determined using either excess non-radioactive ligand or heat inactivation of the protein, as previously described ([Feng et al., 2015]). The TRPV1-activating double-knot toxin (DkTx) was produced recombinantly, folded in vitro and purified as previously described ([Bae et al., 2012]). Yeast membranes were incubated with DkTx solution for 1 hr at 4°C with gentle agitation prior to undertaking RTx binding assays. […]

C=C(C)[C@]12C[C@@H](C)[C@@]34O[C@](Cc5ccccc5)(O[C@@H]1[C@@H]3C=C(COC(=O)Cc1ccc(O)c(OC)c1)C[C@]1(O)C(=O)C(C)=C[C@@H]41)O2 [RTx, resiniferatoxin]
channel activation by RTx (TRPV2 F472S/Q530E): unresponsive
channel activation by RTx (TRPV2 F472S/L510T): sensitive to RTx
Kd ([1]; Kd of 3H-RTx binding (Hill fit)): 0.53 nM and 0.8 nM
Hill slope (nH) ([1]; control (no DkTx), 30°C): 1.1
Hill slope (nH) ([1]; control (no DkTx), 37°C): 1.24
Hill slope (nH) ([1]; in the presence of DkTx (0.7 µM), 30°C): 1
Hill slope (nH) ([1]; in the presence of DkTx (0.7 µM), 37°C): 0.92
